What was measured:
Epac2^Δ280,K405Q = target: T1, Epac2^Δ280,K405Q (Mus musculus, UniProt Q9EQZ6, K423Q); test: Epac activation assay, Epac2 K405Q mutant; assay type: biochemical
T1 construct: made in house
T1 sequence (Q9EQZ6 281-993 isoform Q9EQZ6-3 K405Q): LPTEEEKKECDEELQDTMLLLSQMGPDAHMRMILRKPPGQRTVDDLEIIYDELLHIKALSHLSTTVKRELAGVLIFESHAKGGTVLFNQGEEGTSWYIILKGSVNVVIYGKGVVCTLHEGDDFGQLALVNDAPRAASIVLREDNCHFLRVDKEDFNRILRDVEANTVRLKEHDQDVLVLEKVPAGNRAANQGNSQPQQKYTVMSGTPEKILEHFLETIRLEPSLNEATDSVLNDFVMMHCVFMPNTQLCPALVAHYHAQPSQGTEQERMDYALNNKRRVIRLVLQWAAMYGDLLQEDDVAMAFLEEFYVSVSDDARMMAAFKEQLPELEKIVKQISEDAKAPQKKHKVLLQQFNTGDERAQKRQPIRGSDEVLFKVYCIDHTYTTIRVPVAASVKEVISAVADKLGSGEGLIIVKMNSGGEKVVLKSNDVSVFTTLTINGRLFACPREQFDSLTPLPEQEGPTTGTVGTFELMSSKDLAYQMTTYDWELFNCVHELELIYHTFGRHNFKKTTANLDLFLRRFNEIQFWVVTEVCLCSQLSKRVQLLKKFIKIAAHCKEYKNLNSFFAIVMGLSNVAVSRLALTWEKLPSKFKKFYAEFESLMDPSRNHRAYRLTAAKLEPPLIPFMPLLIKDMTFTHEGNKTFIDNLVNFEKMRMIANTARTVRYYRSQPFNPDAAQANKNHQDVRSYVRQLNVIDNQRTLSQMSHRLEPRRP
Method: Murine Epac2 was used as all previous structural studies were performed with it.
The activity of Epac was determined by a fluorescence assay. […] The fluorescence intensity of Rap1B•mGDP is approximately twice that of free mGDP, and thus, nucleotide exchange can be observed as a decay in fluorescence upon the addition of excess unlabeled GDP.

Epac2^fl = target: T2, Epac2^fl (Mus musculus, UniProt Q9EQZ6); settings: footnote b, see also ref 11; cited from earlier work
T2 sequence (Q9EQZ6 1-993 isoform Q9EQZ6-3): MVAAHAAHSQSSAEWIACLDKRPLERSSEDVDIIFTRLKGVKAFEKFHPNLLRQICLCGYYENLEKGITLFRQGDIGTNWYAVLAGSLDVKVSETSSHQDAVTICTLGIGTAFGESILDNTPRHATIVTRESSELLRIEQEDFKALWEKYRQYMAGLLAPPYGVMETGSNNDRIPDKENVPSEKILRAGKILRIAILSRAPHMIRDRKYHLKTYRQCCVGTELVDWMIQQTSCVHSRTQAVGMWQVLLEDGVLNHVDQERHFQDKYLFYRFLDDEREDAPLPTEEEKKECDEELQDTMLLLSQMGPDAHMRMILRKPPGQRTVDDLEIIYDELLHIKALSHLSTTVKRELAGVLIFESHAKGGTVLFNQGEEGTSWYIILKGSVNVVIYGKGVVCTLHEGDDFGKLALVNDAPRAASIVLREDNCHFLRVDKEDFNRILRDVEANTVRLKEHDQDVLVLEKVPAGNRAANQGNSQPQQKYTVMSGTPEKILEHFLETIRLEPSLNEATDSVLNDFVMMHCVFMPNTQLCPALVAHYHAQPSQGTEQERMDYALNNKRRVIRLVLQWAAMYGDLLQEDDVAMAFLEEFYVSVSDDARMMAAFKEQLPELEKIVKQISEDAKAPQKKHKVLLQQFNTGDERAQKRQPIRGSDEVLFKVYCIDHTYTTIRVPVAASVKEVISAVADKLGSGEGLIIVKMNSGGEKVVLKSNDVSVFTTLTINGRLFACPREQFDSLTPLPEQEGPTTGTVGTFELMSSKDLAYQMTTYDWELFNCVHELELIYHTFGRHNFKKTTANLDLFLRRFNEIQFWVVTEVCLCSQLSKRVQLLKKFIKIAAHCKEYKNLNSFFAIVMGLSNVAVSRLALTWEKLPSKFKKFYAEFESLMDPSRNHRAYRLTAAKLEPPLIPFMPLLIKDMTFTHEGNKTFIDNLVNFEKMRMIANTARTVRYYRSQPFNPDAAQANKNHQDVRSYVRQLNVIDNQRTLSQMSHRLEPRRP

## COC1C2OP(=O)(O)OCC2OC1n1c(Sc2ccc(Cl)cc2)nc2c(N)ncnc21 [D-007, 8-pCPT-2′-O-Me-cAMP, reference compound]
Epac2^Δ280,K405Q
  activation: efficiently activated

## Nc1ncnc2c1ncn2[C@@H]1O[C@@H]2COP(=O)(O)O[C@H]2[C@H]1O [cAMP, reference compound]
Epac2^fl
  Rel. kmax: 1.0^b

From publication PMC4300089, “Structure-Guided Design of Selective Epac1 and Epac2 Agonists” (PLoS Biology, 2015)
